We go through 19 compounds from ChEMBL document CHEMBL4007493 (J Med Chem, 2017).

SMILES strings stand for the structures.

The target of test [1] is T1, D(2) dopamine receptor (Homo sapiens, UniProt P14416).
The target in test [2] is T1, D(2) dopamine receptor. This is another data set of the same source.
In test [3] the target is T1, D(2) dopamine receptor. The source holds these as a separate data set.
Test [4] addresses T1, D(2) dopamine receptor. The source holds these as a separate data set.
Test [5] addresses T1, D(2) dopamine receptor. Put plainly: biochemical.
Test [6] concerns the target T2, D(3) dopamine receptor (Homo sapiens, UniProt P35462). Nature of the test: biochemical.
In test [7] the target is T2, D(3) dopamine receptor.
Test [8] deals with T1, D(2) dopamine receptor. Nature of the test: Antagonist activity at human dopamine D2 receptor expressed in HEK293 cells assessed as reduction in quinpirole-mediated cAMP inhibition preincubated for 15 mins followed by quinpirole addition measured for 1 sec by BRET assay relative to quinpirole. Type of test: functional, cell-based.
In test [9] the target is T1, D(2) dopamine receptor. Put plainly: Antagonist activity at renilla luciferase-tagged human dopamine D2 receptor expressed in HEK293 cells coexpressing mVenus-fused beta-arrestin 2 assessed as reduction in quinpirole-mediated beta-arrestin 2 recruitment preincubated for 15 mins followed by quinpirole addition measured for 1 sec by BRET assay relative to quinpirole. The test is classed as cell-based.

The target of test [10] is T1, D(2) dopamine receptor. Nature of the test: Antagonist activity at human dopamine D2 receptor expressed in forskolin stimulated-HEK293 cells coexpressing renilla luciferase-fused Galphai1/GFP10-fused Ggamma2 assessed as inhibition of quinpirole-induced Galphai1 activation by BRET assay relative to quinpirole. Type of test: cell-based.
In test [11] the target is T1, D(2) dopamine receptor. Put plainly: Antagonist activity at human dopamine D2 receptor expressed in HEK293 cells coexpressing renilla luciferase-fused GalphaoA/GFP10-fused Ggamma2 assessed as inhibition of quinpirole-induced GalphaoA activation by BRET assay relative to quinpirole. The test is classed as cell-based.
For test [12], the target named is T1, D(2) dopamine receptor. The source holds these as a separate data set.
The target of test [13] is T1, D(2) dopamine receptor. The source holds these as a separate data set.
In test [14] the target is T1, D(2) dopamine receptor. This is another data set of the same source.

T1 sequence (P14416 whole entry): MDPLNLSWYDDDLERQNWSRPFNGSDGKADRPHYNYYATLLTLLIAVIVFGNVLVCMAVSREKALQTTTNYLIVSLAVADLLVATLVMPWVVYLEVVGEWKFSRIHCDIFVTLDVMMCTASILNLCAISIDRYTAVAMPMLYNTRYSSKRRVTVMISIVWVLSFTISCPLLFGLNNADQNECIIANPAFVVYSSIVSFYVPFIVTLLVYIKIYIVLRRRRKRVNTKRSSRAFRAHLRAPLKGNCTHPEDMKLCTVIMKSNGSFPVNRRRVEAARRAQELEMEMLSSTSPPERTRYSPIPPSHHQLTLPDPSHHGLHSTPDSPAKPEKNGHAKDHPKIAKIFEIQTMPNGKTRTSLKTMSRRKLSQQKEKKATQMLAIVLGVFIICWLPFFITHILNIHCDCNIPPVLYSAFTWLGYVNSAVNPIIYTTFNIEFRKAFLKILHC
T2 sequence (P35462 whole entry): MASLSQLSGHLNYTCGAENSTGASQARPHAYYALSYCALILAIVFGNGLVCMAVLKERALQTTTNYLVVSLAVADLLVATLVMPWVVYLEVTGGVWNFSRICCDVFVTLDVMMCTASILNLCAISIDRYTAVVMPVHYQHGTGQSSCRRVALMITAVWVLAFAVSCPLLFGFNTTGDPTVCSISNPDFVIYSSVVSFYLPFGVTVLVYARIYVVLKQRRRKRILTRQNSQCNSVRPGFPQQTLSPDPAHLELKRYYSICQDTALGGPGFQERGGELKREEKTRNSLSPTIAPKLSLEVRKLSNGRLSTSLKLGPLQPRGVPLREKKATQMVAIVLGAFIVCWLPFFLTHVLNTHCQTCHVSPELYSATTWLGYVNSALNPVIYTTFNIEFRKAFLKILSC

On to `CCCN[C@@H]1Cc2cccc3c2n(c(=O)n3CCCCOCCCCc2ccccc2)C1`, for which the EC50 is 25.6 nM on D(2) dopamine receptor [1], 197 nM at D(2) dopamine receptor [2], 194 nM at D(2) dopamine receptor [3] and 24.6 nM at D(2) dopamine receptor [4]. Also, the Ki stood at 37.2 nM on D(2) dopamine receptor [5] and 94.2 nM at D(3) dopamine receptor [6].

In the case of `CN[C@@H]1Cc2cccc3[nH]c(=O)n(c23)C1` [SUMANIROLE], the Ki on D(3) dopamine receptor [7] worked out at 573 nM.

Regarding `CCCN[C@@H]1Cc2cccc3c2n(c(=O)n3CCCCCCOCCCCc2ccccc2)C1`, the Ki came to 54.8 nM on D(2) dopamine receptor [5] and 80.6 nM on D(3) dopamine receptor [6].

As for `CN[C@@H]1Cc2cccc3c2n(c(=O)n3CCCCCCCCCCOCCCCc2ccccc2)C1`, the Imax on D(2) dopamine receptor [8] is -10 to 0%; at D(2) dopamine receptor [9], -10 to 0%; at D(2) dopamine receptor [10] it was -80%; at D(2) dopamine receptor [11], -33%. The values for the EC50 at D(2) dopamine receptor [1] and on D(2) dopamine receptor [2] were 710 nM and 2530 nM, respectively. For the same compound, the IC50 turned out to be 4.49 µM against D(2) dopamine receptor [12] and 802 nM against D(2) dopamine receptor [13]. The Ki on D(2) dopamine receptor [5] was 23.8 nM; on D(3) dopamine receptor [6], 113 nM.

For `CCCN[C@@H]1Cc2cccc3c2n(c(=O)n3CCCCNC(=O)c2cc3ccccc3[nH]2)C1`, the Ki at D(2) dopamine receptor [5] amounted to 18.5 nM; on D(3) dopamine receptor [6], 115 nM.

For `CCCN(CCC)[C@@H]1Cc2cccc3c2n(c(=O)n3CCCCNC(=O)c2cc3ccccc3[nH]2)C1`, the Imax at D(2) dopamine receptor [8] was -10 to 0%; on D(2) dopamine receptor [9], -41%; on D(2) dopamine receptor [10], -64%; on D(2) dopamine receptor [11], -27%. In addition, the concentration giving a half-maximal response (EC50) at D(2) dopamine receptor [1] came to 53.8 nM; at D(2) dopamine receptor [2] it was 270 nM; at D(2) dopamine receptor [3], 185 nM; at D(2) dopamine receptor [4], 56.9 nM. Besides, the figures for the IC50 against D(2) dopamine receptor [14], against D(2) dopamine receptor [12] and at D(2) dopamine receptor [13] were 713 nM, 3.65 µM and 2010 nM, respectively.

As to `CN(CCCCOc1ccc2c(c1)NC(=O)CC2)[C@@H]1Cc2cccc3[nH]c(=O)n(c23)C1`, the EC50 on D(2) dopamine receptor [1] was 3.1 nM; on D(2) dopamine receptor [2], 74 nM; at D(2) dopamine receptor [3], 189 nM; at D(2) dopamine receptor [4], 158 nM. The Ki worked out at 40.1 nM on D(2) dopamine receptor [5] and 382 nM at D(3) dopamine receptor [6].

Regarding `CN[C@@H]1Cc2cccc3c2n(c(=O)n3CCOCCOCCCCc2ccccc2)C1`, the values for the Imax at D(2) dopamine receptor [9], at D(2) dopamine receptor [10] and at D(2) dopamine receptor [11] were -13%, -87% and -36%, respectively. Moreover, the EC50 at D(2) dopamine receptor [1] stood at 1230 nM; on D(2) dopamine receptor [2], 2470 nM; at D(2) dopamine receptor [3], 1850 nM; on D(2) dopamine receptor [4] it was 351 nM. Besides, the inhibition constant Ki on D(2) dopamine receptor [5] was found to be 111 nM; on D(3) dopamine receptor [6] it was 227 nM.

Consider `CN[C@@H]1Cc2cccc3c2n(c(=O)n3CCOCCOCCOCCOc2ccc3c(c2)NC(=O)CC3)C1`, for which the Imax was -10 to 0% on D(2) dopamine receptor [8], -67% at D(2) dopamine receptor [9], -66% on D(2) dopamine receptor [10] and -18% at D(2) dopamine receptor [11]. Moreover, the EC50 turned out to be 1000 nM at D(2) dopamine receptor [1], 1870 nM on D(2) dopamine receptor [2], 3980 nM on D(2) dopamine receptor [3] and 1060 nM on D(2) dopamine receptor [4]. For the same compound, the Ki on D(2) dopamine receptor [5] came out at 306 nM; on D(3) dopamine receptor [6] it was 640 nM.

`CN[C@@H]1Cc2cccc3c2n(c(=O)n3CCCCCCCCOCCCCc2ccccc2)C1`: the Imax on D(2) dopamine receptor [8] was -10 to 0%; at D(2) dopamine receptor [9], -10 to 0%; on D(2) dopamine receptor [10] it was -59%; on D(2) dopamine receptor [11] it was -67%. In addition, the results for the Ki on D(2) dopamine receptor [5] and at D(3) dopamine receptor [6] were 38.7 nM and 77.7 nM, respectively.

With `CN[C@@H]1Cc2cccc3c2n(c(=O)n3CCCCOCCCCc2ccccc2)C1`, the Ki at D(2) dopamine receptor [5] stood at 121 nM; on D(3) dopamine receptor [6] it was 377 nM.

For the compound `CN[C@@H]1Cc2cccc3c2n(c(=O)n3CCCCCCOCCCCc2ccccc2)C1`, the Ki was 60.6 nM at D(2) dopamine receptor [5] and 139 nM at D(3) dopamine receptor [6].

Take `CN[C@@H]1Cc2cccc3c2n(c(=O)n3CCOCCOCCOCCCCc2ccccc2)C1`: the Imax is -10 to 0% on D(2) dopamine receptor [8], -47% on D(2) dopamine receptor [9], -72% on D(2) dopamine receptor [10] and -83% at D(2) dopamine receptor [11]. The concentration giving a half-maximal response (EC50) on D(2) dopamine receptor [1] came to 279 nM; on D(2) dopamine receptor [2], 139 nM; at D(2) dopamine receptor [3] it was 678 nM; at D(2) dopamine receptor [4], 88.7 nM. In addition, the results for the Ki on D(2) dopamine receptor [5] and at D(3) dopamine receptor [6] were 34.7 nM and 558 nM, respectively.

For the compound `CN[C@@H]1Cc2cccc3c2n(c(=O)n3CCCCCCCCCCCCOc2ccc3c(c2)NC(=O)CC3)C1`, the Imax on D(2) dopamine receptor [8] is -10 to 0%; at D(2) dopamine receptor [9], -13%; at D(2) dopamine receptor [10], -141%; on D(2) dopamine receptor [11], -71%. In addition, the EC50 at D(2) dopamine receptor [1] came to 1460 nM; on D(2) dopamine receptor [3], 570 nM; at D(2) dopamine receptor [4], 667 nM. Besides, the Ki on D(2) dopamine receptor [5] amounted to 284 nM; on D(3) dopamine receptor [6], 598 nM.

In the case of `CCCn1c(=O)n2c3c(cccc31)C[C@@H](N(C)CCCCNC(=O)c1cc3ccccc3[nH]1)C2`, the Ki is 21.8 nM at D(2) dopamine receptor [5] and 2.45 nM on D(3) dopamine receptor [6].

As for `CCCN(CCC)[C@@H]1Cc2cccc3c2n(c(=O)n3CCC)C1`, the Imax on D(2) dopamine receptor [9] is -23%; at D(2) dopamine receptor [10], -45%; at D(2) dopamine receptor [11], -24%. For the same compound, the EC50 stood at 1 nM at D(2) dopamine receptor [1], 20.5 nM on D(2) dopamine receptor [2], 16.8 nM at D(2) dopamine receptor [3] and 0.9 nM at D(2) dopamine receptor [4]. In addition, the values for the IC50 against D(2) dopamine receptor [14], against D(2) dopamine receptor [12] and against D(2) dopamine receptor [13] were 158 nM, 0.931 µM and 98.9 nM, respectively.

Take `CN[C@@H]1Cc2cccc3c2n(c(=O)n3CCCCOc2ccc3c(c2)NC(=O)CC3)C1`: the Imax at D(2) dopamine receptor [8] is -10 to 0%; at D(2) dopamine receptor [9], -27%; on D(2) dopamine receptor [10] it was -34%; on D(2) dopamine receptor [11] it was -64%. The EC50 is 255 nM at D(2) dopamine receptor [1], 1500 nM on D(2) dopamine receptor [2], 713 nM on D(2) dopamine receptor [3] and 105 nM on D(2) dopamine receptor [4]. At D(2) dopamine receptor [12], this compound displayed an IC50 of 4.1 µM. Further, the Ki worked out at 338 nM at D(2) dopamine receptor [5] and 1350 nM on D(3) dopamine receptor [6].

As for `CCCN(CCCCNC(=O)c1cc2ccccc2[nH]1)[C@@H]1Cc2cccc3c2n(c(=O)n3CCC)C1`, the Imax is -10 to 0% at D(2) dopamine receptor [8], -28% on D(2) dopamine receptor [9], -31% at D(2) dopamine receptor [10] and -40% at D(2) dopamine receptor [11]. The EC50 was determined as 338 nM at D(2) dopamine receptor [1], 944 nM on D(2) dopamine receptor [2], 1150 nM on D(2) dopamine receptor [3] and 458 nM at D(2) dopamine receptor [4]. For the same compound, the IC50 on D(2) dopamine receptor [12] was found to be 2.97 µM; against D(2) dopamine receptor [13] it was 4530 nM.

On to `CN[C@@H]1Cc2cccc3c2n(c(=O)n3CCCCCCCCCCCCOCCCCc2ccccc2)C1`, for which the Ki at D(2) dopamine receptor [5] stood at 124 nM; at D(3) dopamine receptor [6] it was 141 nM.
